Test results reported in US8871777B2, “Phenylpyrimidone compounds, the pharmaceutical compositions, preparation methods and uses thereof” (Topharman Shanghai Co., Ltd., priority 2008, dated 2014).
Read-outs that look alike come from different tables or passages of the source.

Assays:
[1] = molecular target: T1, human blood platelet PDE5 (Homo sapiens, UniProt O76074); test: PDE5 enzyme inhibition activity test (scintillation proximity); assay type: biochemical
T1 construct: obtained by suitably treating various tissues and separating the enzyme with FPLC; from tissue; host or cells: human blood platelets
Experimental: (§1) More specifically, PDE5 and PDE3 were obtained from human blood platelet, and PDE6 was separated from bovine retina. Upon enzyme was separated out, the enzyme inhibition activity test would be carried out immediately. The said enzyme inhibition activity test was performed by directly detecting the scintillation proximity of AMP/GMP using TRKQ7100 and TRKQ7090 kits, which was generally as follows. In the presence of different concentrations of inhibitor and a small amount of substrate, 10 μl of buffer (50 mM Tris/HCl PH 7.5, 8.3 mM MgCl2, 1.7 mM EGTA) was added, and then water was added to a final volume of 100 μl. The reaction was initiated with a fixed amount of enzyme, incubated at 30° C. for 30 min, and then quenched with 50 μl of yttrium silicate beads comprising zinc sulphate. After shaken for 20 min, the reaction mixture was put in dark and settled for 30 min, and then readed on a BECKMAN LS6500 MULTI-PURPOSE SCINTILLATION COUNTER.

PDE6 in bovine retina = molecular target: T2, PDE6 in bovine retina (Bos taurus, UniProt P11541+P23439); test: PDE6 enzyme inhibition activity test (scintillation proximity); assay type: biochemical; details: for PDE6 IC50/PDE5 IC50: selectivity, ratio of IC50 PDE6/IC50 PDE5
T2 construct: obtained by suitably treating various tissues and separating the enzyme with FPLC; from tissue; host or cells: bovine retina
T2 sequence (P11541 2-856 limits assumed): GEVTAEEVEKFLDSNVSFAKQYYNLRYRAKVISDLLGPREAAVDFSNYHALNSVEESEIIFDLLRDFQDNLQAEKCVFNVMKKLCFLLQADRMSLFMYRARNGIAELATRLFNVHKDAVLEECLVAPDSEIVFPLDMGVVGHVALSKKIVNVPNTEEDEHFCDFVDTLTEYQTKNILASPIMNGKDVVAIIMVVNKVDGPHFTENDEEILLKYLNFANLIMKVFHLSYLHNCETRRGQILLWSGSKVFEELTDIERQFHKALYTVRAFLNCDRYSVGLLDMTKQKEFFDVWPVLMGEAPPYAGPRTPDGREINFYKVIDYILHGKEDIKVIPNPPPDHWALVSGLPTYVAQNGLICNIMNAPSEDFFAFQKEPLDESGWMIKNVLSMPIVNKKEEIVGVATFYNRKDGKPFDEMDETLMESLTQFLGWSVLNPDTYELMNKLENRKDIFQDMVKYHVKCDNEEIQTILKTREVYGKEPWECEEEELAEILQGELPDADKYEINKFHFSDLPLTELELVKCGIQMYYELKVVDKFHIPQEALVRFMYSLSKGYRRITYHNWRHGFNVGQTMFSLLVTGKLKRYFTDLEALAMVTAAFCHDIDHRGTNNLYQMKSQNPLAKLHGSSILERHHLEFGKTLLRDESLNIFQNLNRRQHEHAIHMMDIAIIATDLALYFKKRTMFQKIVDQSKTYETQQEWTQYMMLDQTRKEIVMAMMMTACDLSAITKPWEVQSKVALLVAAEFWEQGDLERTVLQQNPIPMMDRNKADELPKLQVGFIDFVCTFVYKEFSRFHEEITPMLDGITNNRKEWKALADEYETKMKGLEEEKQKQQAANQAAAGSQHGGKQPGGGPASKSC
T2 sequence (P23439 2-850 limits assumed): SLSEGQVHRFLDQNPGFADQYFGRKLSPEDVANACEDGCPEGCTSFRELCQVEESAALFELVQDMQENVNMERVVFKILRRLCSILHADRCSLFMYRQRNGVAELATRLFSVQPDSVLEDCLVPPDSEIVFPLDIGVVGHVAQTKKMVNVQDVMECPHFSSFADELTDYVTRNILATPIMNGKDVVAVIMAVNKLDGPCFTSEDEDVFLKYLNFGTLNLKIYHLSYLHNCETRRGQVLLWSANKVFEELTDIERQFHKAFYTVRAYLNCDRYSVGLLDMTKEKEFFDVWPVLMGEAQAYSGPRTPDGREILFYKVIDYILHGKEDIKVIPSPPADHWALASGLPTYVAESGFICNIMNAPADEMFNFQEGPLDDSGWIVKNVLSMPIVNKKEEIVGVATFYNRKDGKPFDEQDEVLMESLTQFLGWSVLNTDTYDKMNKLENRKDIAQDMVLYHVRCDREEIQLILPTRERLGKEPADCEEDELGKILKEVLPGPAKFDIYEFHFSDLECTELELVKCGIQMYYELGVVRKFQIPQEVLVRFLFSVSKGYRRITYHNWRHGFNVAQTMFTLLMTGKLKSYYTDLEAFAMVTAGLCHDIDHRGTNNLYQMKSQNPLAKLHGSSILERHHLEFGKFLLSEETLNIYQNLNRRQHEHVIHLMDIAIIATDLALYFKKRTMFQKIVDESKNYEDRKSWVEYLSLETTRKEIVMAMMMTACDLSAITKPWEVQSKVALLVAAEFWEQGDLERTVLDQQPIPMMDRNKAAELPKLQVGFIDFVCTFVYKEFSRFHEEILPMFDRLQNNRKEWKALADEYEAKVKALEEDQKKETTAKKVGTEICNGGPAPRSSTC
Experimental: as §1

[2] = PDE6 separated from bovine retina, read-out: PDE6 IC50

IC50 ([1]; PDE5 table)	IC50 ([1]; as repeated in the PDE6 table)	IC50 (PDE6 in bovine retina; [2])	PDE6 IC50/PDE5 IC50 (PDE6 in bovine retina)	Structure (SMILES)	IC50 (PDE6 in bovine retina)
0.33 nM	0.33 nM	5.15 nM	15.6	CCCOc1ccc(C(=O)NC(C)CO)cc1-c1nc(CC)c(CC)c(=O)[nH]1 (stereo not drawn) [Example 166, 3-(4,5-diethyl-1,6-dihydro-6-oxopyrimidin-2-yl)-N-(1-hydroxyprop-2-yl)-4-n-propoxybenzamide]	–
0.92 nM	0.92 nM	6.42 nM	22.64	CCCOc1ccc(NC(=O)CCCNC(C)=O)cc1-c1nc(CC)c(CC)c(=O)[nH]1 [Example 107, 4-Acetamido-N-(3-(4,5-diethyl-1,6-dihydro-6-oxopyrimidin-2-yl)-4-n-propoxyphenyl)butyramide]	–
1.86 nM	1.86 nM	620 nM	10.5	CCCOc1ccc(NC(=O)N2CCCC2)cc1-c1nc(CC)c(CC)c(=O)[nH]1 [Example 49]	–
1.09 nM	1.09 nM	642 nM	589.0	CCCOc1ccc(N/C(=N/CC)N(CC)CC)cc1-c1nc(CC)c(CC)c(=O)[nH]1 [Example 46, N-[3-(4,5-diethyl-1,6-dihydro-6-oxopyrimidin-2-yl)-4-n-propoxyphenyl]-N′,N″-triethylguanidine]	–
0.13 nM	0.13 nM	3.76 nM	28.6	CCCOc1ccc(S(=O)(=O)NCCCS(=O)(=O)O)cc1-c1nc(CC)c(CC)c(=O)[nH]1 [Example 124, 3-(N-(3-(4,5-diethyl-1,6-dihydro-6-oxopyrimidin-2-yl)-4-n-propoxyphenyl)sulfonyl)aminopropylsulfonic acid]	–
0.57 nM	0.57 nM	4.25 nM	7.5	CCCOc1ccc(C(=O)NC(Cc2ccc(O)cc2)C(=O)OC)cc1-c1nc(CC)c(CC)c(=O)[nH]1 (stereo not drawn) [Example 140, methyl 2-(3-(4,5-diethyl-1,6-dihydro-6-oxopyrimidin-2-yl)-4-n-propoxybenzamido)-3-(4-hydroxyphenyl)propionate]	–
0.4 nM	0.4 nM	37.9 nM	94.6	CCCOc1ccc(C(=O)NC(C)C(=O)N2CCN(C)CC2)cc1-c1nc(CC)c(CC)c(=O)[nH]1 (stereo not drawn) [Example 154, 3-(4,5-diethyl-1,6-dihydro-6-oxopyrimidin-2-y1)-N-(1-(4-methylpiperazin-l-yl)-1-oxopropan-2-y1)-4-n-propoxybenzamide]	–
0.88 nM	0.88 nM	54.5 nM	61.9	CCCOc1ccc(NC(=O)NCCN(CC)CC)cc1-c1nc(CC)c(CC)c(=O)[nH]1.O=C(O)/C=C\C(=O)O [Example 204, 1-(2-(Diethylamino)ethyl)-3-(3-(4,5-diethyl-1,6-dihydro-6-oxopyrimidin-2-yl)-4-n-propoxyphenyl)urea maleate]	–
1.01 nM	1.01 nM	9.66 nM	9.6	CCCOc1ccc(S(=O)(=O)N(CCO)CCN2CCOCC2)cc1-c1nc(CC)c(CC)c(=O)[nH]1 [Example 135, 5,6-diethyl-2-(2-n-propoxy-5-(N-(2-morpholinylethyl)-N-(2-hydroxyethyl)aminosulfonyl)phenyl)pyrimid-4(3H)-one]	–
1.98 nM	1.98 nM	11.7 nM	5.88	CCCOc1ccc(C(=O)NCC(=O)OCC)cc1-c1nc(CC)c(CC)c(=O)[nH]1 [Example 89, Ethyl 2-(3-(4,5-diethyl-1,6-dihydro-6-oxopyrimidin-2-yl)-4-n-propoxybenzamido)acetate]	–
1.61 nM	1.61 nM	26.9 nM	16.7	CCCOc1ccc(NC(N)=O)cc1-c1nc(CC)c(CC)c(=O)[nH]1 [Example 67, 1-(3-(4,5-Diethyl-1,6-dihydro-6-oxopyrimidin-2-yl)-4-n-propoxyphenyl)urea]	–
1.36 nM	1.36 nM	52.8 nM	38.8	CCCOc1ccc(S(=O)(=O)NCCN2CCOCC2)cc1-c1nc(CC)c(CC)c(=O)[nH]1 [Example 31, 5,6-diethyl-2-{2-n-propoxy-5-[N-(2-morpholinylethyl)aminosulfonyl)phenyl}pyrimid-4(3H)-one]	–
0.57 nM	0.57 nM	36.8 nM	66.2	CCCOc1ccc(NC(C)=O)cc1-c1nc(CC)c(CC)c(=O)[nH]1 [Example 53, N-(3-(1,6-dihydro-4,5-diethyl-6-oxopyrimidin-2-yl)-4-propoxyphenyl)acetamide]	–
0.49 nM	0.49 nM	13.3 nM	27.3	CCCOc1ccc(S(=O)(=O)NC(C)C(=O)OCC)cc1-c1nc(CC)c(CC)c(=O)[nH]1 (stereo not drawn) [Example 123, ethyl 2-(N-(3-(4,5-diethyl-1,6-dihydro-6-oxopyrimidin-2-yl)-4-n-propoxyphenyl)sulfonyl)aminopropionate]	–
0.57 nM	0.57 nM	7.88 nM	13.7	CCCOc1ccc(C(=O)N2CCOCC2)cc1-c1nc(CC)c(CC)c(=O)[nH]1 [Example 59, (Morpholin-1-yl)(3-(4,5-diethyl-1,6-dihydro-6-oxopyrimidin-2-yl)-4-n-propoxy)benzophenone]	–
0.34 nM	0.34 nM	7.4 nM	21.4	CCCOc1ccc(NC(=O)c2ccccc2)cc1-c1nc(CC)c(CC)c(=O)[nH]1 [Example 186, N-(3-(4,5-diethyl-1,6-dihydro-6-oxopyrimidin-2-yl)-4-n-propoxyphenyl)benzamide]	–
1.21 nM	1.21 nM	13.2 nM	10.9	CCCOc1ccc(NC(=O)CC)cc1-c1nc(CC)c(CC)c(=O)[nH]1 [Example 54, N-(3-(1,6-dihydro-4,5-diethyl-6-oxopyrimidin-2-yl)-4-propoxyphenyl)propionamide]	–

Structure (SMILES)	IC50 ([1]; PDE5 table)	IC50 ([1]; as repeated in the PDE6 table)	IC50 (PDE6 in bovine retina; [2])	PDE6 IC50/PDE5 IC50 (PDE6 in bovine retina)	IC50 (PDE6 in bovine retina)
CCCOc1ccc(NS(C)(=O)=O)cc1-c1nc(C(C)C)c(Br)c(=O)[nH]1 [Example 50, 5-Bromo-6-isopropyl-2-(2-n-propoxy-5-mesylamidophenyl)pyrimid-4(3H)-one]	1.24 nM	–	114 nM	91.9	–
CCCOc1ccc(S(=O)(=O)NCCS(=O)(=O)O)cc1-c1nc(CC)c(CC)c(=O)[nH]1 [Example 125, 2-(N-(3-(4,5-diethyl-1,6-dihydro-6-oxopyrimidin-2-yl)-4-n-propoxyphenyl)sulfonyl)aminoethylsulfonic acid]	0.19 nM	0.19 nM	–	14.6	2.71 nM
